Measurements: ChEMBL document CHEMBL6153029, “Next-generation cancer therapeutics: PROTACs and the role of heterocyclic warheads in targeting resistance” (Eur J Med Chem, 2025)
Blank lines part the entries; values can stand above or below the compound they belong to.

Tests used:
[1] = biological target: Mitogen-activated protein kinase kinase kinase kinase 1 (Homo sapiens, UniProt Q92918); experiment: Inhibition of HPK1 (unknown origin)
[2] = biological target: Protein cereblon/Tyrosine-protein kinase BTK (Homo sapiens, UniProt Q06187+Q96SW2); experiment: PROTAC activity at BTK/CRBN in human MINO cells assessed as BTK protein degradation at 20 nM measured after 2 hrs by Western blotting analysis; type: cell-based
[3] = Upregulation of p53 protein expression in human A549 cells at 3.33 uM relative to control; type: functional
[4] = Downregulation of MDM2 protein expression in human A549 cells at 1.11 uM relative to control; type: functional
A549 [5] = experiment: Antiproliferative activity against human A549 cells; type: functional, cell-based
[6] = Downregulation of MDM2 protein expression in human A549 cells at 10 uM relative to control; type: functional
[7] = Upregulation of p53 protein expression in human A549 cells at 1.11 uM relative to control; type: functional
[8] = Upregulation of p53 protein expression in human A549 cells at 10 uM relative to control; type: functional
[9] = Downregulation of MDM2 protein expression in human A549 cells at 3.33 uM relative to control; type: functional
[10] = PROTAC activity at VHL/human p38alpha in MDA-MB-231 cells assessed as p38alpha degradation; type: cell-based
NCI-H1975 = experiment: Antiproliferative activity against human NCI-H1975 cells assessed as reduction in cell viability by MTT assay; type: functional, cell-based
A549 [11] = experiment: Antiproliferative activity against human A549 cells assessed as reduction in cell viability by MTT assay; type: functional, cell-based
U-87 MG = experiment: Antiproliferative activity against human U87 cells; type: functional, cell-based, U-87MG ATCC
[12] = biological target: T1, Glucose-induced degradation protein 4 homolog/EML4-ALK (Homo sapiens, UniProt Q9UM73+Q9HC35+Q8IVV7); experiment: PROTAC activity at GID4/EML4-ALK in human NCI-H3122 cells assessed as protein degradation at 1 uM measured for 48 hrs by immunoblot analysis; type: cell-based
Target sequence in this assay (Q9UM73 whole entry): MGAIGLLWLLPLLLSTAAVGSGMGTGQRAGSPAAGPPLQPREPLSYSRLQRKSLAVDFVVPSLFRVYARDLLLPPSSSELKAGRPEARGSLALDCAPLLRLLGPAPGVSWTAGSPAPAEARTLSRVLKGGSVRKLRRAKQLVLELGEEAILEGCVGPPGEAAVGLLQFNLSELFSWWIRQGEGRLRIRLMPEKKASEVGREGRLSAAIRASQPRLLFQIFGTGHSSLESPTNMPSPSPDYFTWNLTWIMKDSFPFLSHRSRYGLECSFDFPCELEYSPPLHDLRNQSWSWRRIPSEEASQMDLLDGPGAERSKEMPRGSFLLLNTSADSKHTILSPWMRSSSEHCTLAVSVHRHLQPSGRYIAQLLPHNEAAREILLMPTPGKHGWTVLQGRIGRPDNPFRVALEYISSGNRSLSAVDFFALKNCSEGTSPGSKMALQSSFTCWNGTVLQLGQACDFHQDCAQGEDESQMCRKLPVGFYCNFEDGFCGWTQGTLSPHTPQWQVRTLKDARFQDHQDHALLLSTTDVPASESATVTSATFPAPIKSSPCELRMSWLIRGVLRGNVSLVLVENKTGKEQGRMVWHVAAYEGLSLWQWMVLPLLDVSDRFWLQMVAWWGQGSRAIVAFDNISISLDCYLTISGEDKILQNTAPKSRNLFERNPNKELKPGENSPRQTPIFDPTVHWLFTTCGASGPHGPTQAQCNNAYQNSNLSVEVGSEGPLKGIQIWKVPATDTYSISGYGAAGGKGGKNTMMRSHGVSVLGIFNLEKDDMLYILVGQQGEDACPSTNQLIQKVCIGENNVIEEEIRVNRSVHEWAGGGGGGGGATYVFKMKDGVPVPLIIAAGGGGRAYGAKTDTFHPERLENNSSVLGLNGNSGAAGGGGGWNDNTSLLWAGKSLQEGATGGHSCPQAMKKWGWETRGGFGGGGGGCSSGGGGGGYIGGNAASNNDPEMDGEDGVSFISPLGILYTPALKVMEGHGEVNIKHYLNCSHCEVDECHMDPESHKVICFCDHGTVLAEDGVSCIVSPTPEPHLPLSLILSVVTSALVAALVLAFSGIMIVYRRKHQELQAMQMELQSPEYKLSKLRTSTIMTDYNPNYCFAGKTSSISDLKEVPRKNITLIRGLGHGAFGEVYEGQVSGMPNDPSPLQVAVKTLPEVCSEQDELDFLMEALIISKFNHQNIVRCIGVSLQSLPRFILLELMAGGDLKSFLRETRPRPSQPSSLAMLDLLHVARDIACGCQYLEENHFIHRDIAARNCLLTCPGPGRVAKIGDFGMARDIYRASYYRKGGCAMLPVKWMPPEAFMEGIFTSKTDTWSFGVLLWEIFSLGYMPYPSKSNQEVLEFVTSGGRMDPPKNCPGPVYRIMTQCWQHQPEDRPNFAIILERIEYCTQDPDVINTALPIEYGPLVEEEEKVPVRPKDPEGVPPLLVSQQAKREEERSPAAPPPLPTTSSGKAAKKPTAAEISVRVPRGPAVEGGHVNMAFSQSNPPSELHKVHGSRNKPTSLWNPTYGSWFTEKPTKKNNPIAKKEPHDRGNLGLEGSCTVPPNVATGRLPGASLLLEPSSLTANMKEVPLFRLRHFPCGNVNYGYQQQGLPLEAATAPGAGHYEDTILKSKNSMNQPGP
Target sequence in this assay (Q9HC35 whole entry): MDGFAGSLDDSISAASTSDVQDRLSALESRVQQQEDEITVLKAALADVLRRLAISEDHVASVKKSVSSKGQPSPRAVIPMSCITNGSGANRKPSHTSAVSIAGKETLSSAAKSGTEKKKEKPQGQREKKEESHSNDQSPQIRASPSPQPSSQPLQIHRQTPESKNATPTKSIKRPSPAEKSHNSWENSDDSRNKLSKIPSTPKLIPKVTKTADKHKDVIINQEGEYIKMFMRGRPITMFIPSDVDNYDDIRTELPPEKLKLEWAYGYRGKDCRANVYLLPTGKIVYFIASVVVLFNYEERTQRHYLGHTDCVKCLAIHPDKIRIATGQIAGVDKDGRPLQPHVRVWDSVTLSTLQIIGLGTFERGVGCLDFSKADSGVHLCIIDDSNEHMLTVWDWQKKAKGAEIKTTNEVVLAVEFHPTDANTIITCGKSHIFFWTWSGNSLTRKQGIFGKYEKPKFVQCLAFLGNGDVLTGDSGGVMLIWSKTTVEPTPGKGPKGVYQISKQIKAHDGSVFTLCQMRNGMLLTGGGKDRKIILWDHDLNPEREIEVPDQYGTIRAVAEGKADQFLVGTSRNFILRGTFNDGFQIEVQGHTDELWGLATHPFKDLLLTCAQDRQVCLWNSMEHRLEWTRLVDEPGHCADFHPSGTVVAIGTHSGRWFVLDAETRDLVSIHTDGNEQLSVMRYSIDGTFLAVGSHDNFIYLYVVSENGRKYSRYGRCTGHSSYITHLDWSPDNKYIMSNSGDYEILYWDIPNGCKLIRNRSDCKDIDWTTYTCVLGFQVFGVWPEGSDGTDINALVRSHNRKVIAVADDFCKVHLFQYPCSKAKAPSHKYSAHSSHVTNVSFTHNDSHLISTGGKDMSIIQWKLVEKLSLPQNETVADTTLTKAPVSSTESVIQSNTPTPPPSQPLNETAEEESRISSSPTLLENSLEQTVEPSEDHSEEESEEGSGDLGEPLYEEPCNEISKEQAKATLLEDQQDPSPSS
Target sequence in this assay (Q8IVV7 whole entry): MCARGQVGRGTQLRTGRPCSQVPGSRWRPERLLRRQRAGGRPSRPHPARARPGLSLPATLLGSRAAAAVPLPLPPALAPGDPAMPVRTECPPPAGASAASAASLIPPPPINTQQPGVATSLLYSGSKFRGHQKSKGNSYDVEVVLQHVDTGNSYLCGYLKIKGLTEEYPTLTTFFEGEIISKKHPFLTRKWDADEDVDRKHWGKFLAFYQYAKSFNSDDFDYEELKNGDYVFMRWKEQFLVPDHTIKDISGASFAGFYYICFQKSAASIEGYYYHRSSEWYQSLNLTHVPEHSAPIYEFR

[13] = biological target: T2, Protein cereblon/ALK tyrosine kinase receptor/Nucleophosmin (Homo sapiens, UniProt Q9UM73+P06748+Q96SW2); experiment: PROTAC activity at CRBN/NPM/ALK in human KARPAS-299 cells assessed as maximal degradation of protein at 1 uM incubated for 48 hrs by Western blotting analysis relative to control; type: cell-based
[14] = biological target: T2, Protein cereblon/ALK tyrosine kinase receptor/Nucleophosmin; experiment: PROTAC activity at CRBN/NPM/ALK in human KARPAS-299 cells incubated for 48 hrs by Western blotting analysis; type: cell-based
Target sequence in this assay (Q9UM73 whole entry): as the sequence (Q9UM73 whole entry) above
Target sequence in this assay (P06748 whole entry): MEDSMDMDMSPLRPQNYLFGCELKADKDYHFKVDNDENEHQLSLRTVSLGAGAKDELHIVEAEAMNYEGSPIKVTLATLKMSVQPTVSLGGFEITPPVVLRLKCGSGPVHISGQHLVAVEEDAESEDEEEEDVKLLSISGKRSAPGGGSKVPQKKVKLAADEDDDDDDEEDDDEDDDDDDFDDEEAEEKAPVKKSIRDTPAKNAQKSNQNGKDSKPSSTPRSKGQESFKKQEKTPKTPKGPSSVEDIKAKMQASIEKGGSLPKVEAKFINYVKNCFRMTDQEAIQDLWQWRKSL
Target sequence in this assay (Q96SW2 whole entry): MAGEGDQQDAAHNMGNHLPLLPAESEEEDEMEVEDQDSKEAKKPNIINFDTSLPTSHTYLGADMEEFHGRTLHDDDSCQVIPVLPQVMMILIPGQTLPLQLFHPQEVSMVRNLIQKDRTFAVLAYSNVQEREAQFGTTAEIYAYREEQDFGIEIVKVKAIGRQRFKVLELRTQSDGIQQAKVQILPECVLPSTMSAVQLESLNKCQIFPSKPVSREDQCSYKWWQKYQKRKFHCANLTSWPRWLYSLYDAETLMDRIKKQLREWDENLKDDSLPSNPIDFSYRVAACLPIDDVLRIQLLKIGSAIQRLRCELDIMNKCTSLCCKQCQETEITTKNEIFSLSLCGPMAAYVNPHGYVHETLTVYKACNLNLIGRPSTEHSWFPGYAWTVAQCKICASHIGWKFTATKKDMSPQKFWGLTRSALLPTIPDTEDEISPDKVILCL

[15] = biological target: T1, Glucose-induced degradation protein 4 homolog/EML4-ALK; experiment: PROTAC activity at GID4/EML4-ALK in human NCI-H3122 cells assessed as maximal protein degradation at 1 uM measured for 48 hrs by immunoblot analysis relative to control; type: cell-based
[16] = biological target: Protein cereblon/Mitogen-activated protein kinase kinase kinase kinase 1 (Homo sapiens, UniProt Q92918+Q96SW2); experiment: PROTAC activity at CRBN/HPK1 in human Jurkat cells assessed as degradation of HPK1 protein by Western blotting analysis; type: cell-based
Chain of Protein cereblon/Mitogen-activated protein kinase kinase kinase kinase 1 (Q92918 whole entry): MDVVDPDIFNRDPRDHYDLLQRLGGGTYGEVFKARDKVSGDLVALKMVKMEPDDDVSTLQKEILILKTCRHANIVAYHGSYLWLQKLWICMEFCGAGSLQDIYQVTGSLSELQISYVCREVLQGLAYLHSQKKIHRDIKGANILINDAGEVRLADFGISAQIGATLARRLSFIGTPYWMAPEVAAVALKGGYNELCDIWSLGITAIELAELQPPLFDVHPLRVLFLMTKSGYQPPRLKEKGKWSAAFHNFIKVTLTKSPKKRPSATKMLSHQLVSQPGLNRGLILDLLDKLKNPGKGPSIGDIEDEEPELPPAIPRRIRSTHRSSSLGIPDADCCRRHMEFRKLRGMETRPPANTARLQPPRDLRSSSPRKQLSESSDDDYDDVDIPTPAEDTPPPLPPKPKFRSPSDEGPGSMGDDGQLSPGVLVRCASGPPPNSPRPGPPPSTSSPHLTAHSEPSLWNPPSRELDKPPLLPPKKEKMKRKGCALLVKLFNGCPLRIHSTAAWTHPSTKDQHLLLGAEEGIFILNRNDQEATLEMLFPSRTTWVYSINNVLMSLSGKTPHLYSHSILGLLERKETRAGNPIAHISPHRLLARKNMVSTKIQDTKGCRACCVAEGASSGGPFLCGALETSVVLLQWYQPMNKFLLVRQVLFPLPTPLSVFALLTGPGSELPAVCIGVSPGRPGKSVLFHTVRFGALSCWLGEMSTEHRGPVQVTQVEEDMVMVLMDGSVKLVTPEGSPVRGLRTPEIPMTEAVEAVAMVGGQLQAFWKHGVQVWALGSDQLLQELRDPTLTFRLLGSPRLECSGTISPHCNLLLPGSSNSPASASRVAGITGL
Chain of Protein cereblon/Mitogen-activated protein kinase kinase kinase kinase 1 (Q96SW2 whole entry): as the sequence (Q96SW2 whole entry) above

[17] = biological target: Platelet-derived growth factor receptor beta (Homo sapiens) (UniProt P09619); experiment: Inhibition of PDGFRbeta (unknown origin) measured for 48 hrs at 10 uM relative to control
[18] = Intrinsic clearance in mouse liver microsomes; type: ADME, Microsome; conditions: read-out: CLH
[19] = Half life in mouse; type: ADME, organism-based; conditions: in vivo
MDA-MB-231 [20] = experiment: Antiproliferative activity against human MDA-MB-231 cells
Pfeiffer [21] = experiment: Induction of cell cycle arrest in human Pfeiffer cells assessed as G0/G1 phase arrest at 100 nM incubated for 24 hrs by PI staining based flow cytometry analysis; type: functional
Pfeiffer [22] = experiment: Antiproliferative activity against human Pfeiffer cells
MCF7 = experiment: Antiproliferative activity against human MCF7 cells
MDA-MB-231 [23] = experiment: Induction of cell cycle arrest in human MDA-MB-231 cells assessed as G0/G1 phase arrest at 12.3 to 1000 nM incubated for 24 hrs by PI staining based flow cytometry analysis; type: functional; conditions: dose 12.3-1000 nM
MDA-MB-468 = experiment: Antiproliferative activity against human MDA-MB-468 cells
T47D = experiment: Antiproliferative activity against human T47D cells

Chain of Mitogen-activated protein kinase kinase kinase kinase 1 (Q92918 whole entry): as the sequence (Q92918 whole entry) above

SMILES: COC(C)(C)CCC[C@@](C)(O)[C@H]1CC[C@]2(C)[C@@H]1[C@H](O)C[C@@H]1[C@@]3(C)CC[C@H](OCC(=O)N4CCN(CC5CCN(c6ccc7c(c6)CN(C6CCC(=O)NC6=O)C7=O)CC5)CC4)C(C)(C)[C@@H]3CC[C@]12C (some centres undefined)
Activity [3]: 138.01%
Activity [4]: 33.78%
IC50 (A549 [5]): 2160 nM
Activity [6]: 65.39%
Activity [7]: 133.45%
Activity [8]: 147.15%
Activity [9]: 49.53%

SMILES: Cc1ccc(C(=O)NCCCc2cn(CCCC(=O)NCCCCCC(=O)N[C@H](C(=O)N3C[C@H](O)C[C@H]3C(=O)N[C@@H](C)c3ccc(-c4scnc4C)cc3)C(C)(C)C)nn2)cc1-n1c(C)cc(OCc2ccc(F)cc2F)c(Br)c1=O
DC50 [10]: 11.6 nM

SMILES: COc1cc2ncnc(Nc3ccc(Cl)c(Cl)c3F)c2cc1Oc1ccc(NC(=O)CCCCCCC(=O)Nc2cccc3c2CN(C2CCC(=O)NC2=O)C3=O)cc1 (centres undefined)
IC50 (NCI-H1975): 2100 nM
IC50 (A549 [11]): 67000 nM

SMILES: Cc1ncsc1-c1ccc(CNC(=O)[C@@H]2C[C@@H](O)CN2C(=O)[C@@H](NC(=O)CCC(=O)Nc2ccc(-c3nncc4c3C3CC4CC3C(=O)NCCCC(=O)n3nc(N)c4c(-c5ccc(NC(=O)Nc6cccc(Cl)c6)cc5)cccc43)cc2)C(C)(C)C)cc1 (some centres undefined)
IC50 (U-87 MG): 910 nM

SMILES: Cc1ncsc1-c1ccc(CNC(=O)[C@@H]2C[C@@H](O)CN2C(=O)[C@@H](NCCCCNC(=O)CNC(=O)c2cc(Oc3ccc(NC(=O)Nc4ccc(Cl)c(C(F)(F)F)c4)cc3)ccn2)C(C)(C)C)cc1
inhibition [17]: > 70%

SMILES: COc1cc(C)[nH]c(=O)c1CNC(=O)c1cccc2c1c(C)cn2[C@H](C)C1CCN(CCCCCCCCCC(=O)N[C@H](C(=O)N2C[C@H](O)C[C@H]2C(=O)NCc2ccc(-c3scnc3C)cc2)C(C)(C)C)CC1
CLint scaled [18]: 150 mL/min/kg
half-life [19]: 1.07 h
IC50 (MDA-MB-231 [20]): 4480 nM
Activity (Pfeiffer [21]): 11.74%
IC50 (Pfeiffer [22]): 2050 nM
IC50 (MCF7): 4150 nM
Activity (MDA-MB-231 [23]): 68.38%
IC50 (MDA-MB-468): 1400 nM
IC50 (T47D): 6850 nM

Other lines, results leading:

IC50 [1]: 614 nM
SMILES: COc1ccc(-c2c[nH]c3ccc(-c4ccc(N5CCN(C(=O)CCCCCNc6cccc7c6C(=O)N(C6CCC(=O)NC6=O)C7=O)CC5)cc4)cc23)cc1OC (centres undefined)

DC50 [2]: 3.8 nM
SMILES: Nc1ncnc2c1c(-c1ccc(Oc3ccccc3)cc1)nn2[C@@H]1CCCN(C(=O)CCCCCNc2ccc3c(c2)C(=O)N(C2CCC(=O)NC2=O)C3)C1 (some centres undefined)

DC50 [12]: 358 nM
Emax [13]: 92.3%
DC50 [14]: 4.6 nM
Emax [15]: 81.3%
SMILES: COc1cc(N2CCN(C(=O)CNc3cccc4c3C(=O)N(C3CCC(=O)NC3=O)C4=O)CC2)ccc1Nc1ncc(Cl)c(Nc2ccccc2S(=O)(=O)C(C)C)n1 (centres undefined)

IC50 [1]: 140 nM
DC50 [16]: 1.8 nM
SMILES: COc1ccc(-c2c[nH]c3ccc(-c4ccc(N5CCN(C(=O)CCOCCNc6cccc7c6C(=O)N(C6CCC(=O)NC6=O)C7=O)CC5)cc4)cc23)cc1OC (centres undefined)
